Results: PMC11225074 (Clinical and Translational Medicine, 2024)

Legend:
[1] = system: Histone H3K4me1 and H3K4me3 peptides; assay: Dot blot of antibody specificity; format: binding; settings: 1:1000, 16 h at 4°C, nitrocellulose, chemiluminescence
From the text: Next, the membranes were washed with 1×TBST in order to eliminate any antibodies that were not bound. Following washing, the membranes were exposed to secondary antibodies that were linked to HRP.

His‐YBX1 = assay: Microscale thermophoresis (MST), His-YBX1 wild type; format: binding; settings: PBS (pH 7.4) with 0.05% Tween‐20, peptide 10 nM to 500 µM, NT-647-NHS labelled protein; at least three experiments
Experimental: The recombinant plasmids pGEX and pET‐28a expressing GST‐YBX1 and His‐YBX1, respectively, were transformed into E. coli BL21 to generate two recombinant strains pGEX‐GST‐YBX1 and pET‐28a‐His‐YBX1. These strains were inoculated into LB medium and cultured with ampicillin or kanamycin, and isopropylthio‐β‐D‐galactoside at 16°C overnight. Post‐culturing, the cells were collected and sonicated in PBS.
Proteins with labels were dissolved in a solution of PBS (pH 7.4) with 0.05% Tween‐20. […] After incubation, the mixture was moved to silica capillaries and thermophoresis was assessed using a NanoTemper Monolith NT.115 device from NanoTemper Technologies GmbH. Dissociation constant (Kd) values were determined using the law of mass action formula in NanoTemper Analysis 1.5.41 software. All microscale thermophoresis (MST) experiments were conducted at least three times.

Binding of His-YBX1 to peptide (MST) (His‐YBX1) | Substance | Antibody specificity towards the corresponding modification [1]
 | H3K4me3 antibody: anti‐H3K4me3 (1:1000; Abcam; ab213224) | high specificity
no discernible binding affinity | ART‐Kme0/1/3‐QTARKSTGGKAPRKQL [H3, chemically synthesized unmethylated histone H3 peptide of 20 amino acids (GenScript)] | 
 | H3K4me1 antibody: anti‐H3K4me1 (1:1000; Abcam; ab176877) | high specificity
